Assay results reported in paper PMC11944670, “Reshaping [^99mTc]Tc-DT11 to DT14D Tagged with Trivalent Radiometals for NTS1R-Positive Cancer Theranostics” (Pharmaceutics, 2025).
Residues, ends and D or L forms follow the SMILES beside them. *: point of attachment. DOTA = O=C(O)CN1CCN(CC(=O)O)CCN(CC(=O)*)CCN(CC(=O)O)CC1; X1 = Cc1ccc(CCCC(=O)NCCOCCOCCOCCOCC(=O)*)cc1; βAla = NCCC(=O)O

Experiment: in vivo
Parameters: species or system mice
Details: male, SCID, mouse, iv, total radioactivity
Method: The distribution of [^67Ga]Ga/[^111In]In/[^177Lu]Lu-DT14D was investigated in male severe combined immunodeficiency (SCID) mice (49 mice in total, 6 weeks of age on arrival date, 22 ± 4 g, NCSR “Demokritos” Animal House, Athens, Greece) bearing NTS1R-positive AsPC-1 xenografts in their flanks. For xenograft induction, suspensions of freshly harvested AsPC-1 cells (5 × 10^6 cells in 150 µL sterile PBS) were subcutaneously injected into the mice’s flanks. The animals were kept under aseptic conditions and 4 weeks later developed well palpable masses at the inoculation sites (100 ± 50 mg) and biodistribution was conducted. On the day of the experiment, the animals received a bolus (100 μL, in vehicle: saline/EtOH 9/1 v/v) containing the radioligand via the tail vein. The following groups of four animals per time point, per treatment, were included per radioligand (the 4 h block groups comprised 3 animals instead) including the respective (radio)ligand amounts injected: i. 78–91 kBq [^67Ga]Ga-DT14D corresponding to 7–17 pmol DT14D at 1 and 4 h pi plus 4 h block (coinjection with 100 µg NT); ii. 74–92 kBq [^111In]In-DT14D corresponding to 20–25 pmol at 4 h (controls), 4 h pi (Entresto®; animals receiving a slurry of 12 mg/200 µL Entresto® oral gavage 30 min in advance) and 4 h block (coinjection with 100 µg NT); 24 h pi (including both controls and Entresto® mice groups); and iii. 730 kBq [^177Lu]Lu-DT14D corresponding to 40 pmol DT14D at 4, 24, 48, and 72 h pi plus 4 h block (co-injection with 100 µg NT). The animals were euthanized at predetermined time intervals, dissected and blood samples, organs of interest, and tumors were collected, weighed, and counted in the gamma counter. Biodistribution data were calculated as percent of the injected activity per gram tissue (%IA/g) with the aid of suitable standards of the administered activity. Results as the mean %IA/g values ± sd were obtained and statistical analysis was performed with PRISM^TM GraphPad—10.2 Software (San Diego, CA/USA), applying 2-way ANOVA with Tukey’s post hoc analysis, or, in the case of two variables, Šídák’s multiple comparisons test was adopted; differences with p < 0.05 were considered as statistically significant.

Work on CC[C@H](C)[C@H](NC(=O)[C@H](Cc1ccc(O)cc1)NC(=O)[C@@H]1CCCN1C(=O)[C@H](CCCNC(=N)N)NC(=O)[C@H](CCCNC(=N)N)NC(=O)[C@H](CCCCNC(=O)COCCOCCOCCOCCNC(=O)CCCc1ccc(C)cc1)NC(=O)CCNC(=O)CCNC(=O)CCNC(=O)CN1CCN(CC(=O)O)CCN(CC(=O)O)CCN(CC(=O)O)CC1)C(=O)N[C@@H](CC(C)C)C(=O)O [[^67Ga]Ga-DT14D, metal not drawn] ({DOTA-βAla-βAla-βAla}-K(X1)RRPYIL-OH) yielded a tissue uptake at 1 h (Biodistribution, AsPC-1 Tumor) of 11.4 ± 1.25 %ID/g, a tissue uptake at 1 h (Biodistribution, Blood) of 9.52 ± 0.76 %ID/g and a tissue uptake at 1 h (Biodistribution, Femur) of 2.24 ± 0.23 %ID/g. The tissue uptake at 1 h (Biodistribution, Heart) was 2.86 ± 0.16 %ID/g, the tissue uptake at 1 h (Biodistribution, Intestines) was 2.81 ± 0.53 %ID/g and the tissue uptake at 1 h (Biodistribution, Kidneys) was 7.1 ± 1.12 %ID/g. It also gave a tissue uptake at 1 h (Biodistribution, Liver) of 3.74 ± 0.37 %ID/g, a tissue uptake at 1 h (Biodistribution, Lungs) of 4.31 ± 0.28 %ID/g and a tissue uptake at 1 h (Biodistribution, Muscle) of 1.14 ± 0.15 %ID/g. It also gave a tissue uptake at 1 h (Biodistribution, Pancreas) of 1.41 ± 0.12 %ID/g, a tissue uptake at 1 h (Biodistribution, Spleen) of 2.86 ± 0.33 %ID/g and a tissue uptake at 1 h (Biodistribution, Stomach) of 0.97 ± 0.27 %ID/g. For the same compound, the tissue uptake at 4 h (Biodistribution, Stomach) was 0.45 ± 0.08 %ID/g, the tissue to tissue ratio at 1 h (Tumor/Blood ratio) was 1.2 ± 0.06 and the tissue to tissue ratio at 1 h (Tumor/Heart ratio) was 3.99 ± 0.24. For the same compound, the tissue to tissue ratio at 1 h (Tumor/Intestines ratio) was 4.12 ± 0.52, the tissue to tissue ratio at 1 h (Tumor/Kidneys ratio) was 1.62 ± 0.13 and the tissue to tissue ratio at 4 h (Tumor/Kidneys ratio) was 1.15 ± 0.12. For the same compound, the tissue to tissue ratio at 1 h (Tumor/Liver ratio) was 3.05 ± 0.19, the tissue to tissue ratio at 1 h (Tumor/Lungs ratio) was 2.64 ± 0.15 and the tissue to tissue ratio at 4 h (Tumor/Lungs ratio) was 3.28 ± 0.21. The tissue to tissue ratio at 1 h (Tumor/Muscle ratio) was 10.1 ± 1.09, the tissue to tissue ratio at 1 h (Tumor/Pancreas ratio) was 8.09 ± 0.24 and the tissue to tissue ratio at 1 h (Tumor/Spleen ratio) was 4 ± 0.08. For the same compound, the tissue to tissue ratio at 1 h (Tumor/Stomach ratio) was 12.2 ± 2.71 and the tissue to tissue ratio at 4 h (Tumor/Stomach ratio) was 9.96 ± 1.68.
CC[C@H](C)[C@H](NC(=O)[C@H](Cc1ccc(O)cc1)NC(=O)[C@@H]1CCCN1C(=O)[C@H](CCCNC(=N)N)NC(=O)[C@H](CCCNC(=N)N)NC(=O)[C@H](CCCCNC(=O)COCCOCCOCCOCCNC(=O)CCCc1ccc(C)cc1)NC(=O)CCNC(=O)CCNC(=O)CCNC(=O)CN1CCN(CC(=O)O)CCN(CC(=O)O)CCN(CC(=O)O)CC1)C(=O)N[C@@H](CC(C)C)C(=O)O [[^111In]In-DT14D, metal not drawn] ({DOTA-βAla-βAla-βAla}-K(X1)RRPYIL-OH) gave a tissue uptake at 24 h (Biodistribution, AsPC-1 Tumor) of 2.82 ± 0.68 %ID/g, a tissue uptake at 24 h (Biodistribution, Kidneys) of 1.7 ± 0.13 %ID/g and a tissue to tissue ratio at 24 h (Tumor/Intestines ratio) of 4.07 ± 0.42. For the same compound, the tissue to tissue ratio at 24 h (Tumor/Kidneys ratio) was 1.66 ± 0.4 and the tissue to tissue ratio at 24 h (Tumor/Spleen ratio) was 1.77 ± 0.32.
